{"source": "paper PMC10591299", "about": "“Targeting SHP2 with an Active Site Inhibitor Blocks Signaling and Breast Cancer Cell Phenotypes” (ACS Bio & Med Chem Au, 2023)", "key": {"PTP1B": {"target": "T1, PTP1B (Homo sapiens, UniProt P18031)", "T1 construct": "The GST fusion PTP domains of SHP1 and PTP1B were expressed and purified in a fashion similar to that of SHP2; GST; made in house", "T1 sequence (P18031 3-277 limits assumed)": "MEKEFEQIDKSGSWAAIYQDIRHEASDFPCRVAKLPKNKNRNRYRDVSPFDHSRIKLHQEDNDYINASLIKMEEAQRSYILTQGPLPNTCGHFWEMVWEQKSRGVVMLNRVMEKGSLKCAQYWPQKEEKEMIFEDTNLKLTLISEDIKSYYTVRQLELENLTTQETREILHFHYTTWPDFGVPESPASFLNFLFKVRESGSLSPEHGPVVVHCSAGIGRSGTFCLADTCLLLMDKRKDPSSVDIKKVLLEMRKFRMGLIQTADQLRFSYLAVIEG", "assay": "PTPase assay, GST-fusion PTP domain of PTP1B, DiFMUP substrate", "assay_type": "biochemical", "protocol": "After completion of synthesis, both CNBCA and CNBBA were purified on silica gel, and purity was determined by HPLC. The purified compounds were then tested for their effect on the SHP2 enzyme activity and on the activity of the selected control PTPs (SHP1 and PTP1B) by the phosphotyrosyl phosphatase (PTPase) assay as described previously.[30],[31] First, the GST fusion of the PTP domains of SHP2, SHP1, and PTP1B were produced and purified as reported by us previously.[32] The reactions were performed in a buffer containing 10 mM Tris-HCl (pH 7.2), 100 mM NaCl, 1 mM EDTA, 1 mM dithiothreitol (DTT), and 0.01% Tween-20. […] The complete mixture was incubated at 37 °C for 20 min, and fluorescence intensity was measured by the Synergy 4 plate reader at the excitation and emission wavelengths of 360 and 460 nm, respectively. The half inhibitory concentration (IC50) value of each compound was calculated and plotted using Graphpad Prism software. […]\nWe used the PTPase assay described previously[30],[31] to evaluate the effect of the newly synthesized compounds on the enzymatic activity of SHP2, SHP1, and PTP1B. […] The mixtures were incubated at 37 °C for 20 min and transferred to 96 well plates, and the fluorescence intensity was measured by a Synergy 4 plate reader at the excitation and emission wavelengths of 360 and 460 nm, respectively. […]"}, "BT474 cells": {"test_system": "BT474 cells", "assay": "Colony formation in soft agar, BT474", "assay_type": "cell-based", "conditions": "BT474, 500 nM, 10 days, versus vehicle", "protocol": "Since SHP2 is essential for the growth and transformation of BC cells,[8],[9],[11] we determined the effect of SHP2 inhibition with CNBCA in 2D and 3D culture systems. For the effect on cell growth, BC cells (BT474 and MDA-MB468) were seeded in 2D culture and treated with a single concentration of CNBCA (500 nM), the concentration that provided a 50% inhibition of SHP2 mediated signaling in BT474 cells. Images were collected at the start and every 24 h for a total of 72 h (3 days). […] For effect on anchorage independent growth, approximately 10^6 cells were seeded in soft agar as described previously,[24] and treated with CNBCA at 500 nM concentration for 10 days with refeeding and adjustment of compound concentration. […] Finally, the effect of CNBCA on cancer stem cell properties was determined by the suspension assay, in which only cells with stem-like properties only can grow and form mammospheres.[7],[24],[36] Approximately 10^6 cells were seeded in nonadherent 6 cm plates and treated with CNBCA (500 nM) for 10 days with complementation of media and drug concentration.\nFor colony formation studies, we used the soft agar assay, which keeps cells anchorage independently, allowing determination on the transformation phenotype of cancer cells, including breast cancer cells.[11],[35] For this assay, we first prepared a 5% stock suspension in PBS by boiling it in a microwave. […]"}}, "data": [{"smiles": "CCCCCCCCCOc1ccc(-c2ccc(C(=O)O)cc2)cc1CCCC(=O)O", "note": "[CNBCA, 3′-(3-carboxypropyl)-4′-(nonyloxy)-[1,1′-biphenyl]-4-carboxylic acid]", "values": [{"measurement": "IC50", "setting": "PTP1B; PTP domain, 1 nM enzyme, 10 μM DiFMUP", "value": 25, "unit": "µM"}, {"measurement": "selectivity ratio PTP1B versus SHP2", "setting": "PTP1B; SHP2 IC50 as reference", "value": 28.73, "unit": "fold"}, {"measurement": "colony formation in soft agar", "setting": "BT474 cells", "value": "fewer and smaller colonies"}]}]}
